This note sets out measurements from US20230172906A1, “METHOD TO TREAT VIRAL INFECTION INDUCED BY A CORONAVIRUS” (priority 2020, published 2023).

Each structure is given as a SMILES string.

Data set [1] relates to SARS-CoV-2 pseudovirus entry into HEK293 cells expressing human ACE2. It counts as cell-based.
Data set [2] has as its system HEK293 cells. The note with it: melatonin at 10 and 100 μM, FIG. 1B.
In data set [3] the target is T1, RBD/ACE2 interaction (Homo sapiens, UniProt Q9BYF1).
T1 construct: expressed in transfected cells; host or cells: HEK293
T1 sequence (Q9BYF1 18-805): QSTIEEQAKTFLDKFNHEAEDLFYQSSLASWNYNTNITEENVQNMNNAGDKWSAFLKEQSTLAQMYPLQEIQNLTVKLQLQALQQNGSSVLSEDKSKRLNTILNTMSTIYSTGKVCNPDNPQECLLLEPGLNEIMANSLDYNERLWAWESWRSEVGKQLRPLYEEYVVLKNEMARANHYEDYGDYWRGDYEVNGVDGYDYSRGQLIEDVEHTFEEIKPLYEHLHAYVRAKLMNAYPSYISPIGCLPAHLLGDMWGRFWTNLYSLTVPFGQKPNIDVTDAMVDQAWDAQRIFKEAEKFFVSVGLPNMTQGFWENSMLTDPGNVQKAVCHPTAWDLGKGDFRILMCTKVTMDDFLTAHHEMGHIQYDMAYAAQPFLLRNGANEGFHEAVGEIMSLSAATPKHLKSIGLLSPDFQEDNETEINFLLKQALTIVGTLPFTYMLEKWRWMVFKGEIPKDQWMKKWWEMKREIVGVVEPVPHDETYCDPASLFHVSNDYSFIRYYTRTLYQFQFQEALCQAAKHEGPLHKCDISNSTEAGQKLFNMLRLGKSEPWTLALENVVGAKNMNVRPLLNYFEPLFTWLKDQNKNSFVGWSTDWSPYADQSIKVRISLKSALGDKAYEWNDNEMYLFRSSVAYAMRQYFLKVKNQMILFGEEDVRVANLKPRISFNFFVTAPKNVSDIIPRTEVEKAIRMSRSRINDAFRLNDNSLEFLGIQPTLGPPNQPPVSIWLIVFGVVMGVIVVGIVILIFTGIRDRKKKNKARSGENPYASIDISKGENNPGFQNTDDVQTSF
Format: binding.

Regarding `COc1ccc2[nH]cc(CCNC(C)=O)c2c1` [melatonin, Melatonin], the “infection by the SARS-CoV-2 pseudovirus” value in data set [1] was “inhibited”. Also, the cell viability result in data set [2] is on record as “without affecting cell viability”. Moreover, the “binding of RBD-d2 of the SARS-CoV-2 Spike protein to Lumi4-Tb-labeled SNAP-tagged human ACE2” value in data set [3] is “inhibits”.
